What was measured:
HFD-fed mice [1] = test: Immunoblot of BAT and iWAT of treated obese mice; format: in vivo, mouse; conditions: 1 mg kg-1/day, 10 days
Experimental: Mice fed a normal chow diet (NCD) and a high-fat diet (HFD) were treated with LJ-4378 (LJ, 1 mg kg-1/day) for 10 days. (A) Immunoblot analysis of BAT (n=6, mean±SEM, ** p<0.01, **** p<0.0001). (B) Immunoblot analysis in iWAT. Tubulin was a loading control. (n=6, mean±SEM, * p<0.05, *** p<0.001, **** p<0.0001).
(§1) For a diet-induced obesity model, mice were fed a high-fat diet (HFD)(Research Diets, D12492, protein: 20% kcal, carbohydrate: 20% kcal, and fat: 60% kcal) for 8 weeks. Then, LJ-4378 (1 mg kg-1) was injected into the mice once daily for 10 days.
(§2) In the case of Western blots, the primary antibodies used for Western blots are summarized in [Table 2] above. An anti-rabbit horseradish peroxidase antibody (1:3000, Thermo Fisher, 31460) and an anti-mouse horseradish peroxidase antibody (1:3000, Jackson, 115-035-174) were used as secondary antibodies. All antibodies were diluted in a blocking buffer (5% skimmed milk or 5% bovine serum albumin in TBST). Western blot images were acquired using a Fusion Solo chemiluminescence imaging system (Vilber Lourmat) and analyzed with Evolution Capt software (version 17.03). NIH ImageJ software was used for quantification.

brown adipocytes [2] = test: Cytotoxicity / cell viability (EZ-CYTOX); format: cell-based, mouse; conditions: 24 hours
Experimental: (§3) Adipocyte precursor cells capable of differentiating into brown adipocytes were isolated from mouse brown adipose tissue. Cells were cultured in Dulbecco's modified Eagle's medium (Welgene, LM001-07) containing 10% fetal bovine serum (FBS, Gibco, 16000044) and 1% Penicillin Streptomycin (Welgene, LS202-02) at 37° C. in a humidified atmosphere with 5% CO2. When the cells reached about 100% confluency, the cells were exposed to a differentiation medium supplemented with 2.5 mM isobutyl methylxanthine (IBMX, Cayman, I5879), 0.125 mM indomethacin (Cayman, 70270), 1 μM dexamethasone (Cayman), 1 μg/mL insulin (Sigma, I9278), and 1 nM triiodothyronine (T3, Cayman, 6028) for 3 days for adipogenesis. Then, the cells were maintained in a growth medium containing 1 μg/mL insulin and 1 nM triiodothyronine (T3) for 3 days.
LJ-4378 is a dual-acting ligand with A2AAR agonist and A3AR antagonist activity. Cell viability was evaluated according to the manufacturer's instructions using EZ-CYTOX (DoGEN, EZ-3000). Absorbance was measured at 450 nm using a microplate reader (Thermo MULTISKAN GO, 8816-2015).

HFD-fed mice [3] = test: Diet-induced obesity model (body weight, body composition, tissue weight, H&E); format: in vivo, mouse; conditions: 1 mg kg-1 once daily, 10 days
Experimental: as §1
Indirect calorimetry was performed using a PhenoMaster (TSE Systems) to measure expenditure (EE), VO2, VCO2, activity, and food intake. Body components were measured by nuclear magnetic resonance scanning Echo MRI-700 (Echo Medical Systems).
Mice fed a HFD were used as a diet-induced obesity model. Body weight changes were monitored during treatment, and fat and body components of the mice were measured after treatment.
For histological analysis, adipose tissue was fixed in 10% formalin and then embedded in a paraffin block. Paraffin sections were stained with hematoxylin/eosin (H&E).

brown adipocytes [4] = test: Immunoblot of mitochondrial proteins and UCP1 in brown adipocytes; format: cell-based, mouse
Experimental: as §3, §2

SMILES: CCCCC#Cc1nc(N)c2ncn([C@@H]3SC[C@@H](O)[C@H]3O)c2n1 [LJ-4378, 2-(6-amino-2-(hex-1-yn-1-yl)-9H-purin-9-yl)tetrahydrothiophene-3,4-diol]
- COXIV upregulation in BAT (HFD-fed mice [1]): 5.91±0.23 fold
- COXIV upregulation in iWAT (HFD-fed mice [1]): 1.24±0.04 fold
- P-CREB upregulation in BAT (HFD-fed mice [1]): 1.54±0.03 fold
- P-CREB upregulation in iWAT (HFD-fed mice [1]): 3.86±0.12 fold
- P-HSL upregulation in BAT (HFD-fed mice [1]): 2.31±0.18 fold
- P-HSL upregulation in iWAT (HFD-fed mice [1]): 1.72±0.04 fold
- UCP1 upregulation in BAT (HFD-fed mice [1]): 1.33±0.06 fold
- UCP1 upregulation in iWAT (HFD-fed mice [1]): 3.34±0.36 fold
- concentrations with no effect on cell viability (brown adipocytes [2]): less than 100 μM
- reduction in body weight (HFD-fed mice [3]): 8.24%
- reduction in fat mass (HFD-fed mice [3]): 24.18%
- reduction in weight of gWAT (HFD-fed mice [3]): 18.6%
- reduction in weight of iWAT (HFD-fed mice [3]): 30.1%
- COXIV expression level, fold increase (brown adipocytes [4]; 0.1 μM, 24 hours, FIG. 4A): 2.18±0.15 fold
- UCP1 expression level, fold increase (brown adipocytes [4]; 0.1 μM, 24 hours, FIG. 4A): 2.93±0.23 fold
- COXIV, fold increase (brown adipocytes [4]; 0.1 μM, 24 hours, FIG. 4D): 2.53±0.08 fold
- MCAD, fold increase (brown adipocytes [4]; 0.1 μM, 24 hours, FIG. 4D): 4.91±0.02 fold
- UCP1, fold increase (brown adipocytes [4]; 0.1 μM, 24 hours, FIG. 4D): 2.67±0.38 fold
- ATP5A protein, fold increase (brown adipocytes [4]; 10^−5, 48 hours): 3.72±0.04 fold
- MCAD protein, fold increase (brown adipocytes [4]; 10^−5, 48 hours): 2.13±0.03 fold
- SDHB protein, fold increase (brown adipocytes [4]; 10^−5, 48 hours): 3.71±0.25 fold
- UQCRC2 protein, fold increase (brown adipocytes [4]; 10^−5, 48 hours): 4.02±0.08 fold
- ATP5A protein, fold increase (brown adipocytes [4]; 10^−7, 48 hours): 3.94±0.06 fold
- MCAD protein, fold increase (brown adipocytes [4]; 10^−7, 48 hours): 1.79±0.09 fold
- SDHB protein, fold increase (brown adipocytes [4]; 10^−7, 48 hours): 3.41±0.47 fold
- UQCRC2 protein, fold increase (brown adipocytes [4]; 10^−7, 48 hours): 4.21±0.13 fold
- ATP5A protein, fold increase (brown adipocytes [4]; 10^−9 M, 48 hours): 3.51±0.05 fold
- MCAD protein, fold increase (brown adipocytes [4]; 10^−9 M, 48 hours): 1.79±0.03 fold
- SDHB protein, fold increase (brown adipocytes [4]; 10^−9 M, 48 hours): 3.47±0.18 fold
- UQCRC2 protein, fold increase (brown adipocytes [4]; 10^−9 M, 48 hours): 3.96 fold
- ATP5A protein, fold increase (brown adipocytes [4]; 10^−11 M, 48 hours): 2.20±0.08 fold
- MCAD protein, fold increase (brown adipocytes [4]; 10^−11 M, 48 hours): 1.53±0.03 fold
- SDHB protein, fold increase (brown adipocytes [4]; 10^−11 M, 48 hours): 1.87±0.28 fold
- UQCRC2 protein, fold increase (brown adipocytes [4]; 10^−11 M, 48 hours): 2.15±0.03 fold
